Legend:
[1] = system: normal epidermal melanocytes; assay: FACS analysis of apoptosis and cell death, normal melanocytes; type: cell-based; settings: 120 hours
Procedure: Cells were then harvested and co-stained with PSVue643 and Propidium iodide (PI). Representative samples of 2 independent experiments.
FACS Analysis of Apoptosis and Cell Death. Adherent cells were harvested with 0.05% Trypsin-EDTA, pooled with floating cells and then washed once with 1×DPBS. Cells were then pelleted and stained with PSVue® 643 at 0.5 μM and Propidium iodide at 50 ug/ml diluted in TES buffer for 5 min in the dark. Cells were then immediately subjected to FACS analysis using a BD LSR II flow cytometer and at least 5,000 cells per sample were acquired.

[2] = system: 4 BRAF-mutant melanoma cell lines; assay: SA-β-gal staining (senescence); type: cell-based, human; settings: 5 μM for 9 days
1205Lu xenografts = assay: 1205Lu xenograft tumor volume; type: in vivo, human; settings: 1205Lu xenografts in mice; treated for 12 days
Procedure: FIGS. 3A-3E show long-term cell growth assay of 16 BRAF-mutant melanoma cell lines that were treated with 6-thio-dG or PLX4720 at indicated doses for 12 days (FIG. 3A). […] Cells were then harvested and co-stained with PSVue643 and Propidium iodide (PI). The average of 2 biological replicates are representative of 2 independent experiments; SA-β-gal staining of 4 BRAF-mutant melanoma cell lines treated with 6-thio-dG at 5 μM for 9 days (FIG. 3D). […] Melanoma Xenotransplantation and In vivo Studies. 100,000 melanoma cells were harvested from cell culture and re-suspended in culture medium and Matrigel at a 1:1 ratio. Cells were subcutaneously injected into mice, which were treated with indicated inhibitors when the tumor volume reached 100 mm^3. Mice were sacrificed at the end time point and solid tumors were collected. All animal experiments were performed in accordance with Wistar IACUC protocol 112330 in NOD.[…] 1 Wjl/SzJ mice.

A375 cells = assay: RPPA functional proteome profiling of A375 cells; type: cell-based, human; settings: 72 hours
A375^Fucci2 cells = assay: Time-lapse imaging of cell cycle (Fucci2); type: cell-based, human; settings: over 42 hours, data not shown
LOX-IMVI BR cells = assay: Telomere dysfunction Induced Foci (TIF) assay / γ-H2AX DNA damage foci; type: cell-based, human; settings: 5 μM, compared to the control
Procedure: Telomere dysfunction Induced Foci (TIF) Assay. The TIF assay is based on the co-localization detection of DNA damage by an antibody against gamma-H2AX, and telomeres using FITC-conjugated telomere sequence ([…])3-specific peptide nucleic acid (PNA) probe. Briefly, LOX-IMVI-BR cells were seeded to 6-well plate (50,000 cells/well). After cells adhered to the surface (next day), 6-thio-dG was added with fresh medium. Cells were treated with or without 6-thio-dG at 5 μM every two days for 4 days. Then cells were harvested and cell numbers were counted. 100,000 cells were re-plated in 4-well chamber slides. After cells adhered to the chamber slide (next day), cells were rinsed twice with 1×PBS and fixed in 4% paraformaldehyde in PBS for 10 minutes. Cells were washed twice with PBS and permeabilized in 0.5% Triton X-100 in PBS for 10 minutes. Following permeabilization, cells were washed three times with PBS. Cells were blocked with 0.2% Fish gelatin and 0.5% BSA in PBS for 30 minutes. Gamma-H2AX (mouse) (Millipore, Billerica, MA) was diluted 1:1000 in blocking solution and incubated with cells for 2 hrs. […] Cells were fixed in 4% paraformaldehyde in PBS for 20 minutes at room temperature. […] Images were captured with Deltavision wide-field microscope using the 60× objective, then deconvoluted using Autoquant X3. Gamma-H2AX and TIFs were quantified using Imaris software.

LOX-IMVI BR xenografts = assay: LOX-IMVI BR xenograft tumor volume; type: in vivo, human; settings: LOX-IMVI BR xenografts in mice
Procedure: (§1) Melanoma Xenotransplantation and In vivo Studies. 100,000 melanoma cells were harvested from cell culture and re-suspended in culture medium and Matrigel at a 1:1 ratio. Cells were subcutaneously injected into mice, which were treated with indicated inhibitors when the tumor volume reached 100 mm^3. Mice were sacrificed at the end time point and solid tumors were collected. All animal experiments were performed in accordance with Wistar IACUC protocol 112330 in NOD.[…] 1 Wjl/SzJ mice.

15-1761-1-2 xenografts = assay: 15-1761-1-2 xenograft tumor volume; type: in vivo, human
Procedure: as §1

499 xenografts = assay: 499 xenograft tumor volume; type: in vivo, mouse
Procedure: as §1

[3] = system: AXL, ARID1A and PLK1 in 13-456-5-3 xenografts; assay: RPPA of 13-456-5-3 xenografts; type: in vivo, human
Source text: (§2) Analysis of Gene Expression Microarray Data and Reverse Phase Protein Array (RPPA) Data. The raw data of gene expression microarrays generated from Illumina Chips were normalized, background-corrected and summarized using the R package “lumi”. […] To reduce false positives, the unexpressed probes were removed. The R package “limma” was employed for gene differential expression analysis, followed by multiple test correction by the Benjamini and Hochberg procedure. […] The inventors also conducted GSEA as previously reported. For GSEA, they analyzed gene sets obtained from the Molecular Signatures Database (world-wide-web at broadinstitute.org/gsea/msigdb/). The same differential expression analysis method was applied to RPPA data.

[4] = system: ARID1A and S6 signaling axis in WM4265-2 xenografts; assay: RPPA of WM4265-2 xenografts; type: in vivo, human
Source text: as §2

PEO1 = assay: Relative cell viability, PEO1; type: cell-based, human; settings: 5 days
Procedure: Additionally, the efficacy of 6-thio-dG was tested using two human ovarian cancer cell lines, PEO4 and PEO1-CR. PEO4 is a derivative line of BRCA1/2-mutant PEO1 that regains homologous recombination by BRCA reversion mutation. […] Importantly, all three cell lines were sensitive to 6-thio-dG after the 5-day treatment (FIGS. 14H-14J).

[5] = system: colon cancer cell line, HCT-116; settings: Mender et al., 2015; cited from earlier work
[6] = system: non-small cell lung cancer cell line, A549; settings: Mender et al., 2015; cited from earlier work

Nc1nc2c(ncn2[C@H]2C[C@H](O)[C@@H](CO)O2)c(=S)[nH]1 [6-thio-dG, 6-thio-2′-deoxyguanosine]
cell viability of normal cells [1]: did not impair the cell viability | cellular senescence (SA-β-gal staining) in surviving cells [2]: triggered the induction of cellular senescence | tumor growth (1205Lu xenografts): significantly impair tumor growth | top 30 proteins (cell cycle, DNA damage response, receptor tyrosine kinase signaling) by RPPA (A375 cells): significantly down-regulated | cell cycle progression (time-lapse imaging) (A375^Fucci2 cells): arrested at the G2/M checkpoint followed by cell death | DNA damage (γ-H2AX foci) (LOX-IMVI BR cells): induced DNA damage | telomere dysfunction-induced foci (TIFs) (LOX-IMVI BR cells): increase in telomere dysfunction-induced foci | in vivo growth of xenografts (LOX-IMVI BR xenografts): significantly impaired the in vivo growth | anti-tumor activity in xenografts (15-1761-1-2 xenografts): anti-tumor activity | anti-tumor activity in xenografts (499 xenografts): anti-tumor activity | therapy-resistant markers AXL, ARID1A and PLK1 (RPPA) [3]: down-regulated | ARID1A and S6 signaling axis (RPPA) [4]: down-regulated | sensitivity (relative cell viability) (PEO1): sensitive | cell viability [5]: inhibited cell viability | cell viability [6]: inhibited cell viability
